Results reported in patent US20090275648A1, “MACROCYCLIC GHRELIN RECEPTOR ANTAGONISTS AND INVERSE AGONISTS AND METHODS OF USING THE SAME” (priority 2005, published 2009).

What was measured:
[1] = target: T1, human ghrelin receptor (hGHS-R1a) (Homo sapiens, UniProt Q92847); test: Competitive radioligand binding assay (ghrelin receptor), [125I]-ghrelin, GHS-R/HEK 293 membranes; conditions: competition with [125I]-ghrelin
T1 construct: purchased PerkinElmer BioSignal #RBHGHSM, lot#1887; host or cells: HEK-293 cells, stably transfected; membranes
Method: The competitive binding assay at the human growth hormone secretagogue receptor (HGHS-R1a) was carried out analogously to assays described in the literature. (Bednarek M A et al. Structure-function studies on the new growth hormone-releasing peptide ghrelin: minimal sequence of ghrelin necessary for activation of growth hormone secretagogue receptor 1a; J. Med. Chem. 2000, 43, 4370-4376; Palucki, B. L. et al. Spiro(indoline-3,4′-piperidine) growth hormone secretagogues as ghrelin mimetics; Bioorg. Med. Chem. Lett. […], 11, 1955-1957).
Membranes (GHS-R/HEK 293) were prepared from HEK-293 cells stably transfected with the human ghrelin receptor (hGHS-R1a). These membranes were provided by PerkinElmer BioSignal (#RBHGHSM, lot#1887) and utilized at a quantity of 0.71 μg/assay point. • 1. [^125]-Ghrelin (PerkinElmer, #NEX-388); final concentration: 0.0070-0.0085 nM • 2. […] Multiscreen Harvest plates-GF/C (Millipore, #MAHFC1H60) • 4. Deep-well polypropylene titer plate (Beckman Coulter, #267006) • 5. TopSeal-A (PerkinElmer, #6005185) • 6. Bottom seal (Millipore, #MATAH0P00) • 7. MicroScint-0 (PerkinElmer, #6013611) • 8. Binding Buffer: 25 mM Hepes (pH 7.4), 1 mM CaCl2, 5 mM MgCl2, 2.5 mM EDTA, 0.4% BSA
Competition experiments were performed in a 300 μl filtration assay format. • 1. 220 μL of membranes diluted in binding buffer • 2. 40 μL of compound diluted in binding buffer • 3.
Compounds were provided frozen on dry ice at a stock concentration of 10 mM diluted in 100% DMSO and stored at −80° C. until the day of testing. On the test day, compounds were allowed to thaw at rt overnight and then diluted in assay buffer according to the desired test concentrations. Under these conditions, the maximal final DMSO concentration in the assay was 0.1%.
In deep-well plates, 220 μL of diluted cell membranes (final concentration: 0.71 μg/well) were combined with 40 μL of either binding buffer (total binding, N=5), 1 μM ghrelin (non-specific binding, N=3) or the appropriate concentration of test compound N=2 for each test concentration). […] Plates were sealed with TopSeal-A, vortexed gently and incubated at rt for 30 min. The reaction was arrested by filtering samples through Multiscreen Harvest plates (pre-soaked in 0.5% polyethyleneimine) using a Tomtec Harvester, washed 9 times with 500 μL of cold 50 mM Tris-HCl (pH 7.4, 4° C.), and then plates were air-dried in a fumehood for 30 min. A bottom seal was applied to the plates prior to the addition of 25 μL of MicroScint-0 to each well. Plates were than sealed with TopSeal-A and counted for 30 sec per well on a TopCount Microplate Scintillation and Luminescence Counter (PerkinElmer) using a count delay of 60 sec. Results were expressed as counts per minute (cpm).
Data were analyzed by GraphPad Prism (GraphPad Software, San Diego, Calif.) using a variable slope non-linear regression analysis.
Dmax values were calculated using the following formula: […]
where total and non-specific binding represent the cpm obtained in the absence or presence of 1 μM ghrelin, respectively.

ghrelin receptor = ghrelin receptor (Homo sapiens, UniProt Q92847); test: Inverse agonist assay, Example 4; assay type: cell-based; conditions: inverse agonist activity
Excerpt: The inverse agonist activity at the ghrelin receptor for compounds of the invention can be determined using the methods described in Intl. Pat. Appl. Publ. No. WO 2004/056869 and Holst, B.; Cygankiewicz, A.; Halkjaer, T.; Ankersen, A.; Schwartz, T. W. High constitutive signaling of the ghrelin receptor—identification of a potent inverse agonist. Mol. Endocrinol. 2003, 17, 2201-2210.

Chain of ghrelin receptor (Q92847 whole entry): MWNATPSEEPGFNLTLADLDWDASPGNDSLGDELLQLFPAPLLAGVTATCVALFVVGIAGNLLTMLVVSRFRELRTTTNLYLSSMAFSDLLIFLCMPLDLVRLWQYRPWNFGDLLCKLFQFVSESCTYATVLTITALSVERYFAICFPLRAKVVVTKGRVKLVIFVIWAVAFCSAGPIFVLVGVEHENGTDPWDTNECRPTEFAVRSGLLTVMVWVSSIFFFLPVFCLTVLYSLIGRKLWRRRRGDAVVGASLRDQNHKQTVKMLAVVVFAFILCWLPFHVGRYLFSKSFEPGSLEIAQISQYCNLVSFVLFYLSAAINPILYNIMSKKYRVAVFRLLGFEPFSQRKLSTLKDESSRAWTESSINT
T1 sequence (Q92847 whole entry): as above

`CCC(C)[C@@H]1NCCOc2ccccc2/C=C/CNC(=O)[C@@H](Cc2ccccc2)NC(=O)[C@H](C(C)O)N(C)C1=O` (some centres unmarked) [Compound 502] was tested. Which Ki [1] did it give?
The Ki was 0.001 to 0.1 µM.

And the IC50 (ghrelin receptor)?
The IC50 was 0.001 to 0.1 µM.
